# Measurements from US9970929B2, “Voriconazole immunoassays” (ARK Diagnostics, Inc., priority 2013, dated 2018).
# Experiments:
# [1] = system: antibody Ab15461(P3); assay: homogeneous enzyme immunoassay for voriconazole (conjugate VOR-8 G6PDH, HITACHI 917), calibration and crossreactivity; format: binding, rabbit; settings: for cross reaction with antibody Ab15461(P3), in words: summary of Tables 2 and 3
# Text: Antibodies obtained using any of the disclosed techniques are screened or purified not only for their ability to react with voriconazole, but for a low cross-reactivity with potential interfering substances. “Cross-reactivity” may be determined in a quantitative immunoassay by establishing a standard curve using known dilutions of the target analyte, voriconazole. The standard curve is then used to calculate the apparent concentration of the interfering substance present in various known amounts in samples assayed under similar condition. The cross-reactivity can be calculated as the apparent concentration divided by the actual concentration multiplied by 100. A certain immunoassay for determining cross-reactivity is a homogeneous enzyme immunoassay using a wild type G6PDH as described in U.S. Pat. No. 3,817,837 or mutant G6PDH engineered to contain a cysteine per subunit as described in U.S. Pat. Nos. 6,033,890, 6,090,567 and 6,455,288. Furthermore, the cross-reactivity can be determined in the same type of immunoassay in which the antibody will ultimately be used.
# Rabbit polyclonal antibody Ab15461(P3) was used to measure a substantial change in enzyme activity, generate a calibration curve, and evaluate assay precision, accuracy and specificity. The antibody was added into the antibody diluent to prepare the antibody reagent. The antibody reagent consisted of antibody as prepared above, buffer, stabilizers, preservatives, and the substrates for the enzyme conjugate nicotinamide adenine dinucleotide (NAD^+) and glucose-6-phosphate. Enzyme conjugate including compound VOR-8 G6PDH was added into the conjugate diluent to prepare the enzyme conjugate reagent. The enzyme conjugate reagent included the conjugate, buffer, stabilizers and preservatives. Enzyme conjugate VOR-8 G6PDH was used with rabbit polyclonal antibody Ab15461(P3) in examples below. This technique is generally applicable to produce polyclonal antibodies to voriconazole derivatives and assess their utility.
# The voriconazole antibodies and enzyme conjugates may be used in a homogeneous assay format to detect voriconazole samples. An instrument useful to set up the assay is Hitachi 917 Analyzer (Roche). Voriconazole containing sample is incubated with antibody reagent followed by the addition of the enzyme conjugate reagent. The enzyme conjugate activity decreases upon binding to the antibody. The enzyme conjugate, which is not bound to the antibody, catalyzes the oxidation of glucose 6-phosphate (G6P). The oxidation of G6P is coupled with the reduction of NAD^+ to NADH, which can be measured at 340 nm. The change in the absorbance at 340 nm can be measured spectrophotometrically. The voriconazole concentration in a sample can be measured in terms of G6PDH activity. The increase in the rate at 340 nm is due to the formation of NADH and is proportional to the enzyme conjugate activity. An assay curve is generated using voriconazole added into serum negative for voriconazole. The assay rate increases with increasing the concentration of free drug in the sample.
# Voriconazole was dissolved in methanol to give a stock solution of 1000 μg/mL. Pooled human serum was aliquoted in 10 mL portions. Voriconazole stock solution was added to the aliquots of human serum in preparing a series of known concentrations of voriconazole calibrators ranging from 0 to 16 μg/mL. The assay was performed using Enzyme Conjugate Reagent NB051:79 containing conjugate VOR-8 G6PDH and Antibody Reagent NB051:79 containing antibody Ab15461(P3). Calibration curves were generated on the HITACHI 917 automated clinical chemistry analyzer, as described in Example 10 by measuring each level in duplicate.
# The major metabolic pathway of voriconazole is an enzymatic oxidation of voriconazole. […] The voriconazole metabolite, N-oxide voriconazole was tested in the immunoassay for potential cross reactivity. […]
# [2] = system: antifungal activity; settings: in vitro, versus voriconazole; cited from earlier work
# [3] = antifungal triazole 20 μg/mL added to voriconazole 10 μg/mL in human serum
smiles,measurement,setting,value
OC(Cn1cncn1)(Cn1cncn1)c1ccc(F)cc1F [Fluconazole],Cross-reactivity (%),[1]; [3],2.7%
same,"cross reaction with antibody Ab15461(P3), in words",[1],did not significantly crossreact
"CCC(C)n1ncn(-c2ccc(N3CCN(c4ccc(OCC5COC(Cn6cncn6)(c6ccc(Cl)cc6Cl)O5)cc4)CC3)cc2)c1=O (stereo not drawn) [Itrconazole, Itraconazole]",Cross-reactivity (%),[1]; [3],1.2%
same,"cross reaction with antibody Ab15461(P3), in words",[1],did not significantly crossreact
CC[C@@H]([C@H](C)O)n1ncn(-c2ccc(N3CCN(c4ccc(OC[C@@H]5CO[C@@](Cn6cncn6)(c6ccc(F)cc6F)C5)cc4)CC3)cc2)c1=O [Posaconazole],Cross-reactivity (%),[1]; [3],−2.5%
same,"cross reaction with antibody Ab15461(P3), in words",[1],did not significantly crossreact
"C[C@@H](c1nc[n+]([O-])cc1F)[C@](O)(Cn1cncn1)c1ccc(F)cc1F [Vor-N-Oxide, 4-((2S,3R)-3-(2,4-difluorophenyl)-3-hydroxy-4-(1H-1,2,4-triazol-1-yl)butan-2-yl)-5-fluoropyrimidine 1-oxide]","antifungal potency, fold less potent than the parent drug",[2],100 fold
same,Cross-reactivity (%),"[1]; Vor-N-Oxide 5 μg/mL added to voriconazole 10 μg/mL in human serum, 100 × (mean Test − mean Control) ÷ conc. tested",6.7%
same,Cross-reactivity (%),[1]; Vor-N-Oxide 15 μg/mL added to voriconazole 10 μg/mL in human serum,6.7%
same,"cross reaction with antibody Ab15461(P3), in words",[1],does not cross react significantly
"C[C@@H](c1ncncc1F)[C@](O)(Cn1cncn1)c1ccc(F)cc1F [Voriconazole, (2R,3S)-2-(2,4-difluorophenyl)-3-(5-fluoro-4-pyrimidinyl)-1-(1H-1,2,4-triazol-1-yl)-2-butanol]",Reaction Rate (mA/min) Average of Duplicates,[1]; voriconazole 1.0 μg/mL calibrator in pooled human serum,327.2 mA/min
same,Reaction Rate (mA/min) Average of Duplicates,[1]; voriconazole 2.0 μg/mL calibrator in pooled human serum,337.4 mA/min
same,Reaction Rate (mA/min) Average of Duplicates,[1]; voriconazole 4.0 μg/mL calibrator in pooled human serum,349.6 mA/min
same,Reaction Rate (mA/min) Average of Duplicates,[1]; voriconazole 8.0 μg/mL calibrator in pooled human serum,362.4 mA/min
same,Reaction Rate (mA/min) Average of Duplicates,[1]; voriconazole 16.0 μg/mL calibrator in pooled human serum,380.4 mA/min
